# Laboratory results reported in patent EP0144809A2, “Complex platinum compounds of substituted 5,8-dihydroxy-1,4 naphtoquinones, process for their preparation and their use” (NATEC Institut für naturwissenschaftlich- technische …, priority 1983, dated 1985).
# System: Ehrlich Ascites Tumor
# Assay: Standard test with Ehrlich ascites tumor in ICR mice (antitumor activity)
# Type: in vivo, ICR-Mäusen
# Settings: Dose 6 mg Pt-Komplex pro kg, intraperitoneal on day 1 and day 6; Cure = animals that survived longer than 60 days; two groups (20 mice) for the control
# Excerpt: Zur Ermittlung der antikarzinogenen Aktivität der erfindungsgemäßen Platinkomplexverbindungen wurde der Standardtest mit dem Ehrlich Ascites Tumor an ICR-Mäusen angewendet. […] Die Tumorzellen sowie die Platinkomplexverbindungen wurden am Tag Null bzw. am 1. und 6. Tag intraperitonal injiziert. Die Resultate wurden in der nachstehenden Tabelle II zusammengestellt.
# Der Terminus "Cure" wurde vom National Cancer Institute, USA, übernommen und bedeutet, wieviele Tiere länger als 60 Tage überlebt haben. Aus den Resultaten geht deutlich hervor, daß die erfindungsgemäßen Platinkomplexverbindungen gegenüber den bekannten Antitumormitteln der Vergleichsbeispiele 1 und 7 eine mindestens gleich gute, meist sogar deutlich bessere Antitumorwirkung zeigen.
smiles,measurement,value
"N.N.[Cl][Pt][Cl] [Positive Kontrolle, cis-Dichloro-diamino-platin(II)]","Anzahl der ""Cures"" pro Tiergruppe",4
